The test system of assay [1] is Alternaria brassicae. The experiment in a line: In vivo test on Alternaria brassicae (leaf spot of crucifers), preventive spray on radish plants. As to conditions: radish plants (Pernot variety), contaminated 24 hours after treatment, grading 6 to 7 days after contamination vs control plants, read-out: protection (good, at least 70%, or total); for pest or weed control at 500 ppm: dose of 500 ppm; for pest or weed control at 330 ppm: dose of 330 ppm. On the procedure:
(§1) The active ingredients tested are prepared by homogenization in a mixture of acetone/tween/DMSO, then diluted with water to obtain the desired active material concentration.
Radish plants (Pernot variety), sown on a 50/50 peat soil-pozzolana substrate in starter cups and grown at 18-20° C., are treated at the cotyledon stage by spraying with the active ingredient prepared as described above.
(§2) Plants, used as controls, are treated with the mixture of acetone/tween/DMSO/water not containing the active material.
After 24 hours, the plants are contaminated by spraying them with an aqueous suspension of Alternaria brassicae spores (40,000 spores per cm^3). The spores are collected from a 12 to 13 days-old culture.
The contaminated radish plants are incubated for 6-7 days at about 18° C., under a humid atmosphere.
Grading is carried out 6 to 7 days after the contamination, in comparison with the control plants.

Assay [2] has as its system Botrytis cinerea. The experiment in a line: In vivo test on Botrytis cinerea (cucumber grey mould), preventive spray on gherkin plants. The following applies: gherkin plants (Vert petit de Paris variety), contaminated 24 hours after treatment, grading 5/7 days after contamination vs control plants, read-out: protection (good, at least 50%, or total); for pest or weed control at 500 ppm: dose of 500 ppm; for pest or weed control at 330 ppm: dose of 330 ppm. On the procedure: The active ingredients tested are prepared by homogenization in a mixture of acetone/tween/DMSO, then diluted with water to obtain the desired active material
Gherkin plants (Vert petit de Paris variety), sown on a 50/50 peat soil-pozzolana substrate in starter cups and grown at 18-20° C., are treated at the cotyledon Z11 stage by spraying with the active ingredient prepared as described above.
as §2
After 24 hours, the plants are contaminated by depositing drops of an aqueous suspension of Botrytis cinerea spores (150,000 spores per ml) on upper surface of the leaves. The spores are collected from a 15-day-old culture and are suspended in a nutrient solution composed of: • 20 g/L of gelatin • 50 g/L of cane sugar • 2 g/L of NH4NO3 • 1 g/L of KH2PO4
The contaminated cucumber plants are settled for 5/7 days in a climatic room at 15-11° C. (day/night) and at 80% relative humidity.
Grading is carried out 5/7 days after the contamination, in comparison with the control plants. Under these conditions, good (at least 50%) or total protection is observed: • at a dose of 500 ppm with the following compounds: C-1, D-12, G-8 and I-1; and • at a dose of 330 ppm with the following compounds: G-2, G-5, G-6 and G11.

Assay [3] relates to Pyrenophora teres. The experiment in a line: In vivo test on Pyrenophora teres (barley net blotch), preventive spray on barley plants. The following applies: 288 h, barley plants (Express variety), contaminated 24 hours after treatment, grading 12 days after contamination vs control plants, read-out: protection (good, at least 70%, or total); for pest or weed control at 330 ppm: dose of 330 ppm. The procedure:
as §1
Barley plants (Express variety), sown on a 50/50 peat soil-pozzolana substrate in starter cups and grown at 12° C., are treated at the 1-leaf stage (10 cm tall) by spraying with the active ingredient prepared as described above. Plants, used as controls, are treated with the mixture of acetone/tween/DMSO/water not containing the active material.
After 24 hours, the plants are contaminated by spraying them with an aqueous suspension of Pyrenophora teres spores (12,000 spores per ml). The spores are collected from a 12-day-old culture. The contaminated barley plants are incubated for 24 hours at about 20° C. and at 100% relative humidity, and then for 12 days at 80% relative humidity.
Grading is carried out 12 days after the contamination, in comparison with the control plants.

On to `Cc1ccsc1C(=O)NCCc1ccc(Cl)cc1Cl` [Compound A-2], for which the pest or weed control at 500 ppm in assay [1] is at least 70%. For `Cc1occc1C(=O)NCCc1ccc(Cl)cc1Cl` [Compound C-1], in assay [2], the pest or weed control at 500 ppm is at least 50%. Regarding `Cc1ccc(CCNC(=O)c2sc(C)nc2C(F)(F)F)c(C)c1` [Compound D-2], the pest or weed control at 330 ppm in assay [1] is at least 70%. On the same count and under the same terms, as for `Cc1nc(C(F)(F)F)c(C(=O)NCCc2c(Cl)cccc2Cl)s1` [Compound D-4], the figure is at least 70%. `Cc1nc(C(F)(F)F)c(C(=O)NCCc2ccccc2C)s1` [Compound D-6]: in assay [3], the pest or weed control at 330 ppm is at least 70%.

For the compound `Cc1nc(N)sc1C(=O)NCCc1ccc(Cl)cc1Cl` [Compound D-8], the pest or weed control at 500 ppm in assay [1] and in assay [3] (dose of 500 ppm) was at least 70% each time. As to `Cc1nc(C(F)F)c(C(=O)NCCc2ccc(Cl)cc2Cl)s1` [Compound D-12], the pest or weed control at 500 ppm in assay [2] is at least 50%. Regarding `Cc1ccc(C)c(CCNC(=O)c2cccnc2Cl)c1` [Compound E-1], in assay [1], the pest or weed control at 330 ppm is at least 70%. Consider `Cc1ccccc1CCNC(=O)c1cccnc1Cl` [Compound E-2], for which the pest or weed control at 330 ppm in assay [1] is at least 70%. With `Cc1ccc(CCNC(=O)c2cccnc2Cl)c(C)c1` [Compound E-9], the pest or weed control at 330 ppm in assay [1] was at least 70%. Consider `Cn1cc(C(=O)NCCc2ccccc2Cl)c(C(F)F)n1` [Compound G-2], for which the pest or weed control at 330 ppm in assay [1] is at least 70%; in assay [2], at least 50%; in assay [3], at least 70%. For the compound `COc1cccc(CCNC(=O)c2cn(C)nc2C(F)F)c1OC` [Compound G-3], the pest or weed control at 330 ppm in assay [1] was at least 70%. With `COc1ccccc1CCNC(=O)c1cn(C)nc1C(F)F` [Compound G-4], the pest or weed control at 330 ppm in assay [1] and in assay [3] was at least 70% in each case. For the compound `Cc1ccc(CCNC(=O)c2cn(C)nc2C(F)F)c(C)c1` [Compound G-5], the pest or weed control at 330 ppm was at least 70% in assay [1], at least 50% in assay [2] and at least 70% in assay [3].

On to `Cn1cc(C(=O)NCCc2c(Cl)cccc2Cl)c(C(F)F)n1` [Compound G-6], for which the pest or weed control at 330 ppm in assay [1] was at least 70%; in assay [2], at least 50%; in assay [3], at least 70%. On to `COc1ccc(OC)c(CCNC(=O)c2cn(C)nc2C(F)F)c1` [Compound G-7], for which the pest or weed control at 330 ppm in assay [1] is at least 70%.

As to `Cn1cc(C(=O)NCCc2ccc(F)cc2F)c(C(F)F)n1` [Compound G-8], the pest or weed control at 330 ppm in assay [1] and in assay [3] was at least 70% in each case. In addition, in assay [2], the pest or weed control at 500 ppm is at least 50%.

Turning to `COc1ccc(Br)cc1CCNC(=O)c1cn(C)nc1C(F)F` [Compound G-10], in assay [1], the pest or weed control at 330 ppm was at least 70%. Regarding `Cn1cc(C(=O)NCCc2c(Cl)cc(C(F)(F)F)cc2Cl)c(C(F)F)n1` [Compound G-11], the pest or weed control at 330 ppm is at least 50% in assay [2] and at least 70% in assay [3]. Turning to `Cc1ccccc1CCNC(=O)c1cn(C)nc1C(F)F` [Compound G-12], the pest or weed control at 330 ppm in assay [1] is at least 70%. On the same count and under the same terms, as for `Cc1ccccc1CCNC(=O)c1cn(C)nc1C(F)(F)F` [Compound G-14], the figure is at least 70%. With `Cn1cc(C(=O)NCCc2ccc(C(F)(F)F)cc2Cl)c(C(F)(F)F)n1` [Compound G-15], the pest or weed control at 330 ppm in assay [1] and in assay [3] was at least 70% throughout.

As for `Cc1ccc(C)c(CCNC(=O)c2cn(C)nc2C(F)(F)F)c1` [Compound G-17], the pest or weed control at 330 ppm in assay [1] is at least 70%. In the case of `Cn1cc(C(=O)NCCc2ccc(F)cc2F)c(C(F)(F)F)n1` [Compound G-20], the pest or weed control at 330 ppm in assay [3] was at least 70%. `O=C(NCCc1ccc(Cl)cc1Cl)c1ccsc1I` [Compound I-1]: the pest or weed control at 500 ppm in assay [1] was at least 70%; in assay [2], at least 50%.

(Values after patent publication US9440946B2, “N-phenethylcarboxamide derivatives” (BAYER INTELLECTUAL PROPERTY GMBH, priority 2005, dated 2016).)
